Test results reported in US11702646B2, “Methods for modulating RNA splicing” (PTC THERAPEUTICS, INC., priority 2016, dated 2023).

What was measured:
[1] = system: RNA transcripts of genes having intronic REMS elements; experiment: Change in isoform abundance and iExon/exon inclusion (ΔPSI, Fisher's Exact Test) in the presence of compound; type: cell-based; conditions: doses ranging from 0.3 μM to 3 μM, statistically significant adjusted Fisher's Exact Test p value
Description: Techniques known to one skilled in the art may be used to determine the amount of an RNA transcript(s). In some embodiments, the amount of one, two, three or more RNA transcripts is measured using deep sequencing, such as ILLUMINA® RNASeq, ILLUMINA® next generation sequencing (NGS), ION TORRENT™ RNA next generation sequencing, 454™ pyrosequencing, or Sequencing by Oligo Ligation Detection (SOLID™). In other embodiments, the amount of multiple RNA transcripts is measured using an exon array, such as the GENECHIP® human exon array. In certain embodiments, the amount of one, two, three or more RNA transcripts is determined by RT-PCR. In other embodiments, the amount of one, two, three or more RNA transcripts is measured by RT-qPCR or digital color-coded barcode technology. Techniques for conducting these assays are known to one skilled in the art. […]
Where “U” represents the value for probability of iExon inclusion (a+b)/2/[(a+b)/2+c]^U in the absence of the compound; and, where “C” represents the value for probability of iExon inclusion (a+b)/2/[(a+b)/2+c]^C in the presence of the compound. The values for “a” and “b” represent the number of reads supporting inclusion of an iExon in an RNA transcript. In other words, the “a” value is derived from the amount of reads for a first intronic nucleotide sequence comprising, in 5′ to 3′ order: a first exon having a 5′ splice site operably linked and upstream from a first intronic nucleotide sequence comprising a first branch point further operably linked and upstream from a first intronic 3′ splice site (upstream of the nascent iExon). The “b” value is derived from the amount of reads for a second intronic nucleotide sequence comprising, in 5′ to 3′ order: an iREMS sequence operably linked downstream from the first intronic 3′ splice site and upstream from a second intronic nucleotide sequence comprising a second branch point further operably linked and upstream from a second intronic 3′ splice site of a second exon. The value for “c” represents the number of reads supporting exclusion of an iExon. […]

GM04856 lymphocyte cells = experiment: Endpoint RT-PCR for iExon-containing spliced product in GM04856 lymphocyte cells; type: cell-based; conditions: 10 nM, 1 μM or 10 μM, ~20 h, FIGS. 2A-D and 3-6A
Description: Cell treatment: GM04856 lymphocyte cells were diluted in a medium composed of DMEM, 10% FBS and 1× Pen/Strep to a concentration of 2.5e5 cells/mL. 2 mL (500K cells) were seeded in 6-well plates and recovered for 4 h at 37° C., 5% CO2. Compound dilutions were prepared as 2× compound stock in medium (e.g. for final 100 nM, make a 200 nM stock). After 4 h recovery, 2 mL of the 2× compound stock were added to each well, resulting in 4 mL/well with 1× final compound concentration. The cells were incubated for ˜20 h at 37° C., 5% CO2. After incubation, the cells were pelleted for 5 min at 1000 rpm. The supernatant was vacuum-removed and the cells were resuspended in 350 μl of RLT buffer (w/10 μl/mL beta-mercapto-ethanol, RNeasy kit). Total RNA was isolated using the RNeasy Mini Kit from Qiagen according to the manufacturer's instructions. The concentration of the resulting total RNA was determined using Nanodrop and diluted with water to a final concentration of 25 ng/μL.
Endpoint PCR: 20 μL endpoint RT-PCR5 were set up in 96-well plates using the AgPath-ID One-Step RT-PCR Reagents (Applied Biosystems) according to the manufacturer. Each reaction contained 200 nM forward primer, 200 nM reverse primer, and 50 ng total RNA. […] 10 μL of each RT-PCR reactions were analyzed on 2% 48-well E-Gels (Invitrogen) (pre-run 1 min, run 14 min) and imaged using an BioRad Gel Doc EZ Imager. […]

CCc1nc(C)cn2nc(-c3cc(=O)n4cc(C5CCN(C)CC5)cc(C)c4n3)cc12 [Compound 774]
effect on change in isoform abundance as a result of having intronic REMS elements ([1]; genes of Table 7): demonstrate an effect on change in isoform abundance
effect on inclusion of an iExon with a corresponding change in isoform abundance ([1]; genes of Table 7a): demonstrate an effect on inclusion of an iExon with a corresponding change in isoform abundance
effect on inclusion of an exon with a corresponding change in isoform abundance ([1]; genes of Table 7b): demonstrate an effect on inclusion of an exon with a corresponding change in isoform abundance
PCR product containing the intronic-derived exon (endpoint RT-PCR, agarose gel) (GM04856 lymphocyte cells): appearance of a slower migrating PCR product containing the intronic-derived exon
